Measurements reported in patent EP4729053A1, “SOLID DISPERSION OF P2X4 INHIBITOR, AND PREPARATION METHOD THEREFOR AND USE THEREOF” (Wuhan Createrna Science and Technology Co.,Ltd., priority 2023, dated 2024).

What was measured:
[1] = Solubilization test of compound 1 with surfactants in FaSSIF; format: physicochemical; details: for Concentration of API in vehicle: FaSSIF (pH 6.5), 37°C
Experimental: 50 mg of compound 1 was weighed into 5 mL of FaSSIF medium containing 5 mg of different surfactants (target concentration of API (compound 1): 10 mg/mL). The mixture was shaken at 500 rpm and 37°C. 0.5 mL each of the suspension samples was taken at 0.5 hours, 1 hour, 2 hours, and 4 hours, respectively, centrifuged at 14,000 rpm for 5 minutes, and the supernatant was diluted and analyzed by HPLC. Table 1: Solubility results of compound 1 in FaSSIF containing 10% of surfactant by weight

[2] = Pharmacokinetic study in rats, intragastric administration; format: in vivo; details: rat, plasma, po, Male SD rats, i.g., vehicle 5% Solutol
Experimental: SPF-grade male SD rats weighing 160 to 320 g were divided into 2 groups, with 3 rats per group [Source: Beijing Vital River Laboratory Animal Technology Co., Ltd., Certificate No.: 1103242011040898].
Formulation and dosing: According to the drug concentration and dosing requirements in Table 15 below, the API was accurately weighed and added to the required volume of 5% Solutol. The mixture was vortexed for 2 minutes, then sonicated for 10 minutes, and stirred for 1 hour before administration. Table 15: Formulation and dosing regimen for API pharmacokinetic study
SPF-grade male SD rats weighing 160 to 320 g were divided into 6 groups, with 3 rats per group [Source: Beijing Vital River Laboratory Animal Technology Co., Ltd., Certificate No.: 110011210113195883 (male)].
Formulation and dosing: 80 mg of the corresponding sample in the table below was accurately weighed, dispersed in the required volume of pure water, vortexed for 5 minutes, and administered intragastrically (i.g.). The experimental dosing was scaled proportionally based on animal body weight and dosing concentration.
After administration to the SD rats in each group of Experimental Preparation 1 and Experimental Preparation 2, approximately 0.2 to 0.3 mL of blood samples were collected from the orbital venous plexus at 0.167, 0.5, 1, 2, 3, 4, 6, 8, 10, and 24 hours post-dosing, and transferred to an anticoagulant EP tube (containing 4 µL of EDTA-K2, 375 mg/mL), which was gently inverted three times, stored in an ice box (no more than 30 minutes), centrifuged at 3500 × g for 10 minutes at 4°C, and plasma supernatant was transferred to a labeled EP tube. Hemolysis was observed and recorded, followed by bioanalytical testing.
Sample pretreatment: 40 µL of sample was mixed with 160 µL of acetonitrile containing 0.1% FA and 200 ng/mL mixed internal standard to precipitate proteins. The mixture was vortexed thoroughly and centrifuged at 13,000 rpm for 10 minutes at 4°C.
110 µL of the supernatant was transferred to another 96-well deep-well plate, followed by addition of 110 µL of a mixture of methanol and water (1:3, v:v) containing 0.1% FA. The mixture was shaken for 10 minutes and analyzed using an LC-MS/MS system. The system employed a Sciex Exion LC AD high-performance liquid chromatography system with an XBridge BEH C18 (2.1 × 50 mm, 2.5 µm) column for gradient elution and an AB Sciex Qtrap 4500 mass spectrometer for analysis. The mass spectrometer employed an electrospray ionization (ESI) source in positive ion mode to monitor Tolbutamide, with precursor ion to product ion transitions with mass-to-charge ratios (m/z) of 415.1→263.1 and 271.1→155, respectively.
Data were analyzed using WinNonlin (version 5.2.1, Pharsight, Mountain View, CA) with a non-compartmental model to obtain PK parameters (Cmax, Tmax, T1/2, AUClast, etc.). Table 15: Pharmacokinetic data of some solid dispersions

NS(=O)(=O)c1cc(NC(=O)Cc2ccccc2Cl)cc2nn(C(F)F)cc12 [compound 1]
Concentration of API in vehicle ([1]; Cremophor EL 5 mg, 0.5 h): 1574.3 µg/mL
Concentration of API in vehicle ([1]; Cremophor EL 5 mg, 1 h): 1604.3 µg/mL
Concentration of API in vehicle ([1]; Cremophor EL 5 mg, 2 h): 1538.6 µg/mL
Concentration of API in vehicle ([1]; Cremophor EL 5 mg, 4 h): 1508.2 µg/mL
Concentration of API in vehicle ([1]; Cremophor RH40 5 mg, 0.5 h): 1583.3 µg/mL
Concentration of API in vehicle ([1]; Cremophor RH40 5 mg, 1 h): 1604.5 µg/mL
Concentration of API in vehicle ([1]; Cremophor RH40 5 mg, 2 h): 1567.0 µg/mL
Concentration of API in vehicle ([1]; Cremophor RH40 5 mg, 4 h): 1539.4 µg/mL
Concentration of API in vehicle ([1]; Poloxamer 188 5 mg, 0.5 h): 115.6 µg/mL
Concentration of API in vehicle ([1]; Poloxamer 188 5 mg, 1 h): 123.3 µg/mL
Concentration of API in vehicle ([1]; Poloxamer 188 5 mg, 2 h): 104.0 µg/mL
Concentration of API in vehicle ([1]; Poloxamer 188 5 mg, 4 h): 93.9 µg/mL
Concentration of API in vehicle ([1]; Poloxamer 407 5 mg, 0.5 h): 838.4 µg/mL
Concentration of API in vehicle ([1]; Poloxamer 407 5 mg, 1 h): 860.7 µg/mL
Concentration of API in vehicle ([1]; Poloxamer 407 5 mg, 2 h): 842.0 µg/mL
Concentration of API in vehicle ([1]; Poloxamer 407 5 mg, 4 h): 796.7 µg/mL
Concentration of API in vehicle ([1]; SLS 5 mg, 0.5 h): 614.0 µg/mL
Concentration of API in vehicle ([1]; SLS 5 mg, 1 h): 622.0 µg/mL
Concentration of API in vehicle ([1]; SLS 5 mg, 2 h): 639.0 µg/mL
Concentration of API in vehicle ([1]; SLS 5 mg, 4 h): 652.0 µg/mL
Concentration of API in vehicle ([1]; Solutol HS15 5 mg, 0.5 h): 1465.9 µg/mL
Concentration of API in vehicle ([1]; Solutol HS15 5 mg, 1 h): 1501.6 µg/mL
Concentration of API in vehicle ([1]; Solutol HS15 5 mg, 2 h): 1480.7 µg/mL
Concentration of API in vehicle ([1]; Solutol HS15 5 mg, 4 h): 1456.3 µg/mL
Concentration of API in vehicle ([1]; Tween 80 5 mg, 0.5 h): 899.3 µg/mL
Concentration of API in vehicle ([1]; Tween 80 5 mg, 1 h): 893.1 µg/mL
Concentration of API in vehicle ([1]; Tween 80 5 mg, 2 h): 888.5 µg/mL
Concentration of API in vehicle ([1]; Tween 80 5 mg, 4 h): 886.6 µg/mL
Concentration of API in vehicle ([1]; VE-TPGS 5 mg, 0.5 h): 2113.7 µg/mL
Concentration of API in vehicle ([1]; VE-TPGS 5 mg, 1 h): 2122.7 µg/mL
Concentration of API in vehicle ([1]; VE-TPGS 5 mg, 2 h): 2089.3 µg/mL
Concentration of API in vehicle ([1]; VE-TPGS 5 mg, 4 h): 2077.5 µg/mL
Concentration of API in vehicle ([1]; no surfactant, 0.5 h): 33.9 µg/mL
Concentration of API in vehicle ([1]; no surfactant, 1 h): 22.9 µg/mL
Concentration of API in vehicle ([1]; no surfactant, 2 h): 15.2 µg/mL
Concentration of API in vehicle ([1]; no surfactant, 4 h): 14.9 µg/mL
solubility of compound 1 ([1]; with surfactants SLS, Cremophor EL, Cremophor RH40, VE-TPGS, Tween 80, Poloxamer 407, and Solutol HS15): significantly improved
AUC(0-t) ([2]; 30.00 mg/kg): 10.8 µg·h/mL
Cmax ([2]; 30.00 mg/kg): 2.76 µg/mL
Tmax ([2]; 30.00 mg/kg): 0.67 h
half-life ([2]; 30.00 mg/kg): 5.31 h
AUC(0-t) ([2]; 300.00 mg/kg): 14.7 µg·h/mL
Cmax ([2]; 300.00 mg/kg): 2.36 µg/mL
Tmax ([2]; 300.00 mg/kg): 1 h
half-life ([2]; 300.00 mg/kg): 13.8 h
